Experimental data published in patent US20090233917A1, “Stroke recovery” (priority 2006, published 2009).

What was measured:
[1] = test system: MCA occlusion in rats; experiment: Functional recovery following MCA occlusion in rats, dose study (Examples 2, 3, 6); type: in vivo, Sprague Dawley Rats
Description: Fifty male Sprague Dawley Rats, each weighing 300-400 g, are operated under anesthesia to create MCA occlusion as described in Example 1, and are divided into 5 groups of 10 animals each. Each group is given arimocolomol, p.o., starting at one day after the occlusion at 25 mg/kg/d, 50 mg/kg/d, 100 mg/kg/d, or 200 mg/kg/d once daily for 35 days. One group is a control group with administration of the vehicle only.
Animals are evaluated pre-operation (day −1), then every 7 days after the operation (7, 14, 21, 28, and 35) by forelimb and hindlimb placing tests and body swing test, and given scores as described in Example 1.
On day 35 after MCAO, rats in the control group and the group with the highest dosage were sacrificed and their brains evaluated as in Example 1. The rats in other groups are sacrificed and the brains were removed and flash frozen for further analysis.

[2] = test system: embolic middle cerebral artery occlusion (MCAO) in rats; experiment: Functional recovery following embolic MCAO in rats (Example 13); type: in vivo, Wistar rats; settings: for foot fault test, compared to EPO treatment group: 10 h treatment group
Source text: The purpose of this study was to evaluate the efficacy of arimoclomol in enhancing neurological recovery in a model of embolic middle cerebral artery occlusion (MCAO) in rats (Zhang R L et al. Brain Research 766:83-92, 1997). The embolic MCAO model emulates the damage caused by an embolic stroke which is generally the result of ischemia associated damage or diseases. The embolic MCAO model also closely models the types of damage caused by a stroke because the occlusion is not permanent. Moreover, the embolus often undergoes spontaneous clot lysis and reperfusion within 24-48 hours post-stroke, which is similar to a subset of human stroke. Damage from a stroke can be brought about in two ways. […] Second, the resulting pressure from the initial surge in blood volume once the occlusion is cleared can also result in further neurological damage and damage to the effected blood vessel. This embolic stroke model provides guidance for the neurological recovery resulting from each of these phenomena.
Sixty male Wistar rats between 8-12 weeks of age were operated on to isolate the external carotid artery (ECA) and the internal carotid artery (ICA). A single clot was introduced into the ECA lumen through a PE-50 catheter (0.3 mm outer diameter) attached to a 100 μL Hamilton syringe filled with 0.9% saline via a small puncture. A 16 mm length of the PE-50 catheter was advanced from the ECA into the lumen of the ICA. Subsequently, the clot was injected into the ICA with 2-3 μL of 0.9% saline. The catheter was withdrawn and the right ECA ligated.
The rats were then randomly divided into 6 groups of 10 animals each. To the control group, phosphate buffered saline (PBS) was administered, p.o., starting at six hours after embolic stroke for 28 consecutive days. To the second group, Erythropoitein (EPO) was administered, i.p., starting at 24 hours after embolic stroke for 7 consecutive days (41.7 μg/kg/d). To the third group, arimoclomol was administered daily p.o. (200 mg/kg/d), starting 6 hours after embolic stroke for 28 consecutive days. To the fourth group, arimoclomol was administered daily p.o. (200 mg/kg/d), starting 10 hours after embolic stroke for 28 consecutive days. To the fifth group, arimoclomol was administered p.o. (200 mg/kg/d), starting 24 hours after embolic stroke for 28 consecutive days. To the sixth group, arimoclomol was administered p.o. (200 mg/kg/d), starting 48 hours after embolic stroke for 28 consecutive days.
Animals were evaluated at 1, 3, 7, 14, 21, and 28 days after initiation of embolic stroke by a modified neurological severity score (mNSS) and adhesive-removal and foot fault tests. These tests are widely accepted as standard tests indicative of functional recovery after a stroke. (Chen et al., Ann Neurol 53: 743-751, 2003; Wang et al., Stroke 35: 1732-1737, 2004; Zhang et al, Circulation 3486-3494, 2005).
For the modified neurological severity score (mNSS), the severity of injury was graded on a scale of 0 to 18. This score was determined via the evaluation of a variety of motor tests, sensory tests, balance beam tests and reflex tests as illustrated in Table II below. To determine the score resulting from these tests, one point was awarded for the inability to perform any of the tests or for the lack of a tested reflex. Accordingly, the higher the score, the more severe the injury. (Chen et al., Ann Neurol 53: 743-751, 2003; Wang et al., Stroke 35: 1732-1737, 2004; Zhang et al, Circulation 3486-3494, 2005).
For the adhesive removal test, the rats are trained prior to embolic stroke to remove strips of packing tape (5 cm). The training period constitutes of 3 sessions. Each session consists of 6 bilateral stimulation trials conducted over 2 days wherein the 5 cm strips of packing tape were placed firmly around both wrists of the animal so that they covered the hairless part of the forepaw. […]

[3] = test system: MCA occlusion in rats; experiment: Functional recovery following MCA occlusion in rats, therapeutic window / time course (Examples 4, 5); type: in vivo, Sprague Dawley Rats
Description: Fifty male Sprague Dawley Rats, each weighing 300-400 g, are operated under anesthesia to create MCA occlusion as described in Example 1, and are divided into 5 groups of 10 animals each. […] One group is a control group with administration of the vehicle only at 6 hours. The animals are evaluated as described in Example 2. The experiment of Example 4 is also carried out using iroxanadine as the therapeutic agent.

[4] = test system: healthy human volunteers; experiment: Pharmacokinetic clinical study in healthy human volunteers; type: in vivo
Description: Seven healthy human volunteers were administered orally 400 mg t.i.d. dosing (1200 mg/day) in a double-blinded and placebo controlled clinical study.

[5] = 6 h, 10 h, and 24 h treatment groups, on and after the 14-day time point

[O-][n+]1cccc(/C(Cl)=N/OC[C@H](O)CN2CCCCC2)c1 [arimoclomol, N-[2-hydroxy-3-(1-piperidinyl)propoxy]-pyridine-1-oxide-3-carboximidoyl chloride]
behavioral scores compared to vehicle control group ([1]; 25 mg/kg/day p.o. from one day after occlusion): no significant difference
behavioral scores (forelimb placement, hindlimb placement, body swing tests) ([1]; 50, 100 and 200 mg/kg/day p.o. from one day after occlusion, 35 days): significant dose related improvement
changes in infarct volume ([1]; day 35, highest dosage vs control): no changes
changes in body weight ([1]; dose study, 35 days): no changes
effective doses in the stroke recovery model ([1]; p.o. once daily): 50 to 200 mg/kg/day
maximum effective dose in the study ([1]; p.o. once daily): 200 mg/kg/day
adhesive-removal test, recovery compared to control group ([2]; 200 mg/kg/d p.o., start 6 h, 10 h, 24 h and 48 h after embolic stroke, after the 14 day time point): significantly superior
foot fault test, recovery compared to control groups [2, 5]: significantly superior
mNSS test, recovery compared to control groups [2, 5]: significantly greater
infarct volume compared to control groups ([2]; 6 h and 10 h treatment groups, after 28 days of treatment): significantly lower percentage of infarct volume
foot fault test, compared to EPO treatment group ([2]; 21-day time point): significantly superior
foot fault test, compared to EPO treatment group ([2]; 28-day time point): slightly superior
adhesive-removal test, improvement percentage compared to control ([2]; day 28, each time group (6, 10, 24, 48 h)): greater than 25%
Body Swing Test, recovery compared to vehicle group ([3]; 200 mg/kg/d p.o., all start times): superior to the vehicle group
Hindlimb Placing Test, time course of recovery compared to vehicle group ([3]; 200 mg/kg/d p.o., first dose 6, 12, 24 or 48 h after occlusion): superior to the vehicle group
Forelimb Placing Test, recovery compared to vehicle group ([3]; 200 mg/kg/d p.o., first dose 6, 12, 24 or 48 h after occlusion, all groups): superior to the vehicle group
Hindlimb Placing Test, difference among treated groups ([3]; first administration 6, 12, 24, or 48 hours after occlusion): no statistical difference
Body Swing Test, performance after 21 days ([3]; first administration 6 hours after occlusion): continued to show improved performance
Forelimb Placing Test, recovery compared to other start times ([3]; first administration 6 hours after stroke): superior
Forelimb Placing Test, recovery ([3]; first administration 48 hours after occlusion): significant and sustained
Body Swing Test, recovery of 48 h group compared to 6 h group ([3]; time points up to and including 21 days after occlusion): indistinguishable
clinical abnormalities or changes (ECGs, vital signs, clinical chemistry, physical examination, body weight) ([4]; 400 mg t.i.d. (1200 mg/day) orally): No clinical abnormalities or changes were observed
level of exposure of the 200 mg/kg/day rat PK study in humans ([4]; 400 mg t.i.d. orally, AUC and Cmax, FIG. 15): can be safely achieved in human volunteers
